Columns and labels:
[1] = test system: dog papillary muscle; test: cross-circulated preparation of isolated dog papillary muscle; conditions: Canis lupus familiaris, read-out: Contractile force of dog papillary muscle Increasing rate (%); for activation at 0.03 mg: Dosage 30 µg i.a.; for activation at 0.1 mg: Dosage 100 µg i.a.
Method: 1) Method of using cross-circulated preparation of isolated dog papillary muscle
Cross-circulated preparations of isolated dog papillary muscle were prepared according to the method of Endoh & Hashimoto, American J. Physiol., vol. 218, p.1459-1463, 1970, United States. The compound dissolved in solvent was injected to the artery close to the preparation, and the action of the compound on the contractile force of papillary muscle was determined.

[2] = test system: anesthetized dog; test: anesthetized dog, cardiac contractility and cardiac output; type: in vivo; conditions: for Co Increasing rate (%): blood flow rate in the aorta as index of cardiac output; for Cont Increasing rate (%): contractile force of the right cardiac ventricle muscle
Method: 3) Method of using anesthetized dog
Male or female mongrel dogs weighing 8 - 15 kg were used. The dogs were anesthetized with sodium pentobarbital at the dose of 30 mg/kg (intravenous injection) and then applied with artificial respiration. They were thoracotomised at the intercostal portion between forth and fifith costa, and the fifth costa was excised. Then the pericardium was cut to expose the heart. A probe of an electromagnetic flow meter was attached to the aorta to measure the blood flow rate in the aorta, which was used as an approximate index of the cardiac output (CO). A polyethylene cannula was inserted into the left cardiac ventricle to measure the intraventricular pressure, thereby the variation rate of the intraventricular pressure of the left cardiac ventricle (dp/dt) was electrically determined. A strain gauge was attached to the wall of the right cardiac ventricle to measure the contractile force of the right cardiac ventricle muscle (Cont). The systemic blood pressure was measured at the left femoral artery. The heart rate was measured by means- of a cardiotachometer. The compound dissolved in solvent was applied intravenously from the left femoral vein.

[3] = test system: guinea pig left atrium; test: isolated guinea pig left atrium, isometric contraction in organ bath; conditions: Cavia porcellus, read-out: Contractile foece of guinea pig left atrium Increase rate (%); for activation at 30 µg/mL: Dosage 3x10^-5 g/ml; for activation at 10 µg/mL: Dosage 10^-5 g/ml
Method: 2) Method of using isolated guinea pig left atrium
Male guinea pigs weighing 200 - 300 g were killed by hitting their back of the heat and their left atria were immediately isolated. The left atrium was fixed to the bottom of an organ bath filled with 30 ml of Klebs-Henseleit's solution maintained at 35 °C. A mixed gas comprising 95 % of 02 and 5 % of C02 was passed through the Klebs-Henseleit's solution in the organ bath. The auricle of the left atrium was connected to a transducer with a thread to measure the isometric contraction. The atrium was applied with 0.5 g of resting tension. The atrium was electrically driven by square wave of 1 millisecond duration at a voltage of the order of 1.5 times of the threshold voltage and at a rate of twice per second by means of two platinum electrodes. The preparation was stabilized for 30 minutes, then the compound dissolved in solvent was added to the organ bath, and the reaction was determined.

Row | SMILES | activation at 0.03 mg [1] | activation at 0.1 mg [1] | dp/dtmax Increasing rate (%) ([2]; Dosage 30 µg/kg i.v.) | Co Increasing rate (%) ([2]; Dosage 30 µg/kg i.v.) | Cont Increasing rate (%) ([2]; Dosage 30 µg/kg i.v.) | dp/dtmax Increasing rate (%) ([2]; Dosage 100 µg/kg i.v.) | Co Increasing rate (%) ([2]; Dosage 100 µg/kg i.v.) | Cont Increasing rate (%) ([2]; Dosage 100 µg/kg i.v.) | activation at 30 µg/mL [3] | activation at 10 µg/mL [3]
1 | COc1cc(C2=NNC(=O)CC2)ccc1OCC(=O)N1CCN(Cc2ccc(OC)c(OC)c2OC)CC1 [Compound of Example 1] | 10% | 20.1% | 12.9% | 5.5% | 7.9% | 27.1% | 13.3% | 21.5% | 44.8% | 35.5%
2 | COc1ccc(CN2CCN(C(=O)COc3ccc(C4=NNC(=O)CC4)cc3)CC2)c(OC)c1OC [Compound of Example 2] | 11.4% | 12.5% | 12.2% | 4.8% | 10.1% | 34.3% | 16.3% | 22.8% | 22.6% | 6.4%
3 | COc1ccc(CN2CCN(C(=O)COc3ccc(C4=NNC(=O)CC4)cc3)CC2)cc1 [Compound of Example 3] | 13.2% | 17% | 18.0% | 17.4% | 12.2% | 49.8% | 28.9% | 29.1% | 28% | 32%
4 | COc1ccc(N2CCN(C(=O)C(C)Oc3ccc(C4=NNC(=O)CC4)cc3OC)CC2)cc1 (stereo not shown) [Compound of Example 4] | 7.5% | 24.8% | 9.9% | 8.7% | 3.6% | 19.2% | 19.6% | 10.0% | 35.9% | 23.8%
